Data on five compounds can be found in US20120178666A1 (SHIRE LLC, priority 2009, published 2012).

Structures can show the parent of a compound that is named as a salt. Where two headings read alike, the source gives them in different places.

The nature of data set [1]: Prodrug stability in simulated gastric fluid (USP). The following applies: 37° C.
Method: (§1) The remaining concentrations of the prodrugs were then assayed by HPLC.
The nature of data set [2]: Prodrug stability in simulated intestinal fluid (USP). The following applies: 37° C.
Method: as §1
A short description of data set [3]: Pharmacokinetics in rats in hepatic portal and tail veins following oral administration. In kind it is in vivo. The note with it: rat, equimolar dose. The procedure:
Rats were surgically prepared under isofluorane anaesthesia by attaching a silicon catheter to the portal vein then exteriorising it at the nape of the neck with a blood collection port attached.
At each sampling time serial point blood samples (approximately 0.2 mL) were taken simultaneously from the lateral tail vein cannula and the hepatic portal cannula. After collection of the final blood sample each animal was killed by cervical dislocation. Blood samples were collected at 15, 30 minutes and 1, 2, 4, 8 and 24 hours post dose.
Pharmacokinetic parameters in portal and systemic plasma were derived by non-compartmental analysis (linear/logarithmic trapezoidal) using WinNonlin (Version 4.1) software.

In data set [4] the test system is gut motility. The data set can be described thus: Charcoal propulsion test (gut motility). In kind it is in vivo, rat. How it is done: The effect of a drug on gut motility can be studied by means of the charcoal propulsion test.
The method used was based on that described by Takemori et al. (J. Pharmacol. Exp. Ther. 169:39, 1969). Test treatments were administered orally 60 minutes prior to an oral dose of a 10% suspension of charcoal in 2.5% gum Arabic (2 ml/kg). Twenty minutes after dosing with charcoal, the rats were sacrificed and the entire gastrointestinal tract was removed quickly and carefully. The distance that the charcoal meal had travelled toward the caecum was measured and expressed as a percentage of the total gut length.

A short description of data set [5]: Comparative pharmacokinetic screening study of guanfacine prodrugs in the monkey. The note with it: oral gavage.
Method: Blood samples were taken on 4 sampling occasions at various times up to 6 hours after administration and submitted to analysis for the parent drug and prodrug using a qualified LC-MS-MS assay.
Data set [6] is described as follows: Comparative bioavailability study in monkeys in the fasted or fed state. In kind it is in vivo, cynomolgus monkey. The procedure: Five male cynomolgus monkeys were used. Food was withdrawn from animals in fasted groups from the evening of the day prior to dosing until approximately 4 hours after dosing.
The formulations were prepared on the day of dosing and administered orally as soon as practicable up to a maximum of 2 hours after formulation.
Blood samples (0.5 mL) were collected from all animals pre-dose and at 0.5, 1, 2, 3, 4, 6, 8 10, 12, 16 and 24 hours after dosing.
Following processing, the resultant plasma was frozen and analysed by a qualified method. Pharmacokinetic evaluation was performed using a validated pharmacokinetic software package.

For data set [7] the following is noted: immediate release guanfacine (TENEX); cited from earlier work.
Data set [8] can be described thus: Comparative bioavailability study of guanfacine in monkeys (full pharmacokinetics). The format is in vivo, cynomolgus monkey. The note with it: oral gavage, monkey. The procedure:
The characteristics of the test animals are set out in Table 13.
The following pharmacokinetic parameters derived from the plasma analytical data were determined using Win Nonlin;

Where [9] appears, read: Rattus norvegicus, po, read-out: % inhibition of GIT transit compard to vehicle.
The mark [10] stands for this setting: Rattus norvegicus, po, Study 1, oral dose 0.1 mg/kg guanfacine free base equivalents, read-out: % inhibition of GIT transit compard to vehicle.
[11] abbreviates: Rattus norvegicus, po, Study 1, oral dose 0.3 mg/kg guanfacine free base equivalents, read-out: % inhibition of GIT transit compard to vehicle.
[12] abbreviates: Rattus norvegicus, po, Study 1, oral dose 1 mg/kg guanfacine free base equivalents, read-out: % inhibition of GIT transit compard to vehicle.

`CNCC(=O)N[C@@H](COC(=O)NC(=N)NC(=O)Cc1c(Cl)cccc1Cl)C(=O)O` [Compound 61, (S)-serine(guanfacine)-sarcosine carbamate di-trifluoroacetate]: the “% prodrug remaining following incubation for: 1 h in simulated gastric fluid pH 1.1” value in data set [1] is 92%. Besides, the “% prodrug remaining following incubation for: 2 h in simulated intestinal fluid pH 6.8” value in data set [2] was 96%. The “comparative systemic exposure to guanfacine (in words)” value in data set [3] is on record as “similar”. Also, in data set [4] (setting [9]), the inhibition at 0.1 mg/kg is 8%, the inhibition at 0.3 mg/kg was determined as 25% and the inhibition at 1 mg/kg was found to be 31%. Further, in data set [5], the “prodrug levels in plasma (in words)” value is listed as “detectable prodrug levels in plasma”.

As for `CNCC(=O)N[C@H](C(=O)O)[C@@H](C)OC(=O)NC(=N)NC(=O)Cc1c(Cl)cccc1Cl` [Compound 63, sarcosine-(2S,3R)-threonine(guanfacine) carbamate di-trifluoroacetate], the “% prodrug remaining following incubation for: 1 h in simulated gastric fluid pH 1.1” value in data set [1] is listed as 86%. In addition, the “% prodrug remaining following incubation for: 2 h in simulated intestinal fluid pH 6.8” value in data set [2] is recorded as 99%. Also, the “comparative systemic exposure to guanfacine (in words)” value in data set [3] was “similar”. Besides, in data set [4] (setting [9]), the inhibition at 0.1 mg/kg came to 0%, the inhibition at 0.3 mg/kg was found to be 13% and the inhibition at 1 mg/kg turned out to be 49%. Further, the “prodrug levels in plasma (in words)” value in data set [5] is “detectable prodrug levels in plasma”.

Turning to `N=C(N)NC(=O)Cc1c(Cl)cccc1Cl` [Guanfacine, guanfacine, reference compound], in data set [6] (fasted vs fed), the “food effect (in words)” value is “apparent absence of a food effect”. For the same compound, the “time at which peak plasma drug levels are reached after dosing” value in data set [7] is not below 1 h. Further, the inhibition at 0.1 mg/kg came out at 52% in data set [4] (setting [10]) and 41% in data set [4] (Rattus norvegicus, po, Study 2, oral dose 0.1 mg/kg guanfacine free base equivalents, read-out: % inhibition of GIT transit compard to vehicle). For the same compound, the inhibition at 0.3 mg/kg in data set [4] (setting [11]) was 55%; in data set [4] (Rattus norvegicus, po, Study 2, oral dose 0.3 mg/kg guanfacine free base equivalents, read-out: % inhibition of GIT transit compard to vehicle), 56%. The inhibition at 1 mg/kg in data set [4] (setting [12]) turned out to be 47%. Further, in data set [4] (Rattus norvegicus, po, Study 2, oral dose 0.03 mg/kg guanfacine free base equivalents, read-out: % inhibition of GIT transit compard to vehicle), the inhibition at 0.03 mg/kg was determined as 13%. Also, the “reduction in the distance travelled by the charcoal plug within 20 minutes compared to control group” value in data set [4] (oral, 0.1 mg base/kg) is recorded as 41-52%.

In the case of `CC(C)[C@H](NC(=O)CCCC(=O)NC(=N)NC(=O)Cc1c(Cl)cccc1Cl)C(=O)O` [Compound 1, guanfacine-[glutaryl-(S)-valine] amide trifluoroacetate], the “% prodrug remaining following incubation for: 1 h in simulated gastric fluid pH 1.1” value in data set [1] is listed as 80%. Moreover, the “% prodrug remaining following incubation for: 2 h in simulated intestinal fluid pH 6.8” value in data set [2] was 92%. Also, in data set [4] (setting [9]), the inhibition at 0.1 mg/kg stood at 9%, the inhibition at 0.3 mg/kg was 6%, the inhibition at 1 mg/kg turned out to be 45% and the inhibition at 3 mg/kg came out at 50%. In addition, the inhibition at 5 mg/kg in data set [4] (setting [9]) worked out at 53%. The “plasma guanfacine profile (in words)” value in data set [8] is “sustained guanfacine concentrations”.

Regarding `CC(C)[C@H](N)C(=O)NCCC(=O)NC(=N)NC(=O)Cc1c(Cl)cccc1Cl` [Compound 2, guanfacine-β-alanine-(S)-valine amide di-trifluoroacetate], the “mean Cmax (ng/mL) prodrug” value in data set [6] (Fasted, 0.5 mg/kg guanfacine equivalent, oral) is reported as “BLQ”. Further, in data set [1], the “% prodrug remaining following incubation for: 1 h in simulated gastric fluid pH 1.1” value is recorded as 75%. In data set [2], the “% prodrug remaining following incubation for: 2 h in simulated intestinal fluid pH 6.8” value is listed as 89%. In addition, the inhibition at 0.1 mg/kg in data set [4] (setting [10]) was -3%. Besides, the inhibition at 0.3 mg/kg in data set [4] (setting [11]) came out at 30%. Besides, in data set [4] (setting [12]), the inhibition at 1 mg/kg was 42%. Moreover, the inhibition at 3 mg/kg in data set [4] (Rattus norvegicus, po, Study 1, oral dose 3 mg/kg guanfacine free base equivalents, read-out: % inhibition of GIT transit compard to vehicle) was 42%. Moreover, the inhibition at 5 mg/kg in data set [4] (Rattus norvegicus, po, Study 1, oral dose 5 mg/kg guanfacine free base equivalents, read-out: % inhibition of GIT transit compard to vehicle) is 42%. Also, in data set [5], the “prodrug levels in plasma (in words)” value was “detectable prodrug levels in plasma”.
